Test results: PubChem BioAssay AID2060498 (Molecular Pharmacology Branch, DTP, NCI, 2025)
pIC50: −log10 of the molar value.

System: 171881-019-R-J1-PDC tumor spheroids, viability
Experiment: Anticancer human tumor 171881-019-R-J1-PDC patient-derived invasive breast carcinoma cell line growth inhibition [GQUAD]
Conditions: spheroids with HUVEC and MSC; for pIC50: curve of first compound; for viability, T/C: stronger effect = lower value
Procedure, shortened: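 Tumor cells were grown as complex spheroids with HUVEC endothelial cells and mesenchymal stem cells as stroma. G-quadruplex stabilizers were combined with targeted agents over half-log dilutions from near the clinical Cmax, or from 10 microM.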

[1] = second compound 0.0316 µM, first compound 0.0316 µM
[2] = second compound 0.0316 µM, first compound 0.1 µM
[3] = second compound 0.0316 µM, first compound 0.316 µM
[4] = second compound 0.0316 µM, first compound 1 µM
[5] = second compound 0.0316 µM, first compound 3.16 µM
[6] = second compound 0.0316 µM, first compound 10 µM
[7] = second compound 0.1 µM, first compound 0.0316 µM
[8] = second compound 0.1 µM, first compound 0.1 µM
[9] = second compound 0.1 µM, first compound 0.316 µM
[10] = second compound 0.1 µM, first compound 1 µM
[11] = second compound 0.1 µM, first compound 3.16 µM
[12] = second compound 0.1 µM, first compound 10 µM
[13] = second compound 0.316 µM, first compound 0.0316 µM
[14] = second compound 0.316 µM, first compound 0.1 µM
[15] = second compound 0.316 µM, first compound 0.316 µM
[16] = second compound 0.316 µM, first compound 1 µM
[17] = second compound 0.316 µM, first compound 3.16 µM
[18] = second compound 0.316 µM, first compound 10 µM
[19] = second compound 1 µM, first compound 0.0316 µM
[20] = second compound 1 µM, first compound 0.1 µM
[21] = second compound 1 µM, first compound 0.316 µM
[22] = second compound 1 µM, first compound 1 µM
[23] = second compound 1 µM, first compound 3.16 µM
[24] = second compound 1 µM, first compound 10 µM
[25] = second compound 3.16 µM, first compound 0.0316 µM
[26] = second compound 3.16 µM, first compound 0.1 µM
[27] = second compound 3.16 µM, first compound 0.316 µM
[28] = second compound 3.16 µM, first compound 1 µM
[29] = second compound 3.16 µM, first compound 3.16 µM
[30] = second compound 3.16 µM, first compound 10 µM
[31] = second compound 10 µM, first compound 0.0316 µM
[32] = second compound 10 µM, first compound 0.1 µM
[33] = second compound 10 µM, first compound 0.316 µM
[34] = second compound 10 µM, first compound 1 µM
[35] = second compound 10 µM, first compound 3.16 µM
[36] = second compound 10 µM, first compound 10 µM
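Note: spheroids exposed to compounds for 7 days.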
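Throughout, for viability, T/C: 100% = DMSO vehicle control viability.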

O=c1[nH]cc(F)c(=O)[nH]1 + Cc1[nH]c2ccc(F)cc2c1-c1nc2c3cccnc3c3ncccc3c2[nH]1
pIC50 (second compound 0.0316 µM): < 5.00
pIC50 (second compound 0.1 µM): < 5.00
pIC50 (second compound 0.316 µM): < 5.00
pIC50 (second compound 1 µM): < 5.00
pIC50 (second compound 3.16 µM): > 7.50
pIC50 (second compound 10 µM): > 7.50
viability, T/C [1]: 75.7%
viability, T/C [2]: 64.5%
viability, T/C [3]: 62.7%
viability, T/C [4]: 54.1%
viability, T/C [5]: 47.7%
viability, T/C [6]: 53%
viability, T/C [7]: 80.5%
viability, T/C [8]: 70.7%
viability, T/C [9]: 60.9%
viability, T/C [10]: 54.7%
viability, T/C [11]: 50.5%
viability, T/C [12]: 53.5%
viability, T/C [13]: 73.1%
viability, T/C [14]: 65.8%
viability, T/C [15]: 59.3%
viability, T/C [16]: 52.7%
viability, T/C [17]: 58.7%
viability, T/C [18]: 52%
viability, T/C [19]: 68.6%
viability, T/C [20]: 55.4%
viability, T/C [21]: 56.6%
viability, T/C [22]: 50.2%
viability, T/C [23]: 54.3%
viability, T/C [24]: 48.8%
viability, T/C [25]: 21%
viability, T/C [26]: 21.6%
viability, T/C [27]: 30.6%
viability, T/C [28]: 23.8%
viability, T/C [29]: 24.2%
viability, T/C [30]: 24.7%
viability, T/C [31]: 44.4%
viability, T/C [32]: 47.8%
viability, T/C [33]: 47.3%
viability, T/C [34]: 42%
viability, T/C [35]: 52.1%
viability, T/C [36]: 38.8%

CC(C)(O)C1CCC(Nc2ccc3ncc(-c4cccc(C(F)(F)F)c4)n3n2)CC1 (stereo unspecified) + Cc1[nH]c2ccc(F)cc2c1-c1nc2c3cccnc3c3ncccc3c2[nH]1
pIC50 (second compound 0.0316 µM): 5.74
pIC50 (second compound 0.1 µM): 5.74
pIC50 (second compound 0.316 µM): 5.86
pIC50 (second compound 1 µM): 6.21
pIC50 (second compound 3.16 µM): > 7.50
pIC50 (second compound 10 µM): > 7.50
viability, T/C [1]: 94.8%
viability, T/C [2]: 104%
viability, T/C [3]: 88.4%
viability, T/C [4]: 74.5%
viability, T/C [5]: 23.8%
viability, T/C [6]: 32%
viability, T/C [7]: 99.5%
viability, T/C [8]: 96.7%
viability, T/C [9]: 97.8%
viability, T/C [10]: 73.5%
viability, T/C [11]: 25.4%
viability, T/C [12]: 31.1%
viability, T/C [13]: 78.7%
viability, T/C [14]: 71.6%
viability, T/C [15]: 66.2%
viability, T/C [16]: 60%
viability, T/C [17]: 24%
viability, T/C [18]: 25.4%
viability, T/C [19]: 63.6%
viability, T/C [20]: 47.6%
viability, T/C [21]: 58.8%
viability, T/C [22]: 45.2%
viability, T/C [23]: 16.4%
viability, T/C [24]: 10.9%
viability, T/C [25]: 6.94%
viability, T/C [26]: 4.45%
viability, T/C [27]: 5.15%
viability, T/C [28]: 3.84%
viability, T/C [29]: 2.07%
viability, T/C [30]: 0.75%
viability, T/C [31]: 36.5%
viability, T/C [32]: 42%
viability, T/C [33]: 28.6%
viability, T/C [34]: 24.1%
viability, T/C [35]: 5.07%
viability, T/C [36]: 3.8%

CC1COCCN1c1cc(-c2ccnn2C)c2ccnc(-c3ccn[nH]3)c2n1 (stereo unspecified) + Cc1cnc(CNC(=O)c2c(=O)c3ccc(N4CCCN(C)CC4)nc3n3c2sc2ccccc23)cn1
pIC50 (second compound 0.0316 µM): > 7.50
pIC50 (second compound 0.1 µM): > 7.50
pIC50 (second compound 0.316 µM): > 7.50
pIC50 (second compound 1 µM): > 7.50
pIC50 (second compound 3.16 µM): 7.43
pIC50 (second compound 10 µM): > 7.50
viability, T/C [1]: 41.9%
viability, T/C [2]: 22.4%
viability, T/C [3]: 13.9%
viability, T/C [4]: 8.64%
viability, T/C [5]: 5.53%
viability, T/C [6]: 5.12%
viability, T/C [7]: 42.5%
viability, T/C [8]: 24.9%
viability, T/C [9]: 14.8%
viability, T/C [10]: 8.31%
viability, T/C [11]: 5.49%
viability, T/C [12]: 5.8%
viability, T/C [13]: 41.5%
viability, T/C [14]: 27.8%
viability, T/C [15]: 17.2%
viability, T/C [16]: 9.26%
viability, T/C [17]: 5.7%
viability, T/C [18]: 5.04%
viability, T/C [19]: 46.4%
viability, T/C [20]: 33%
viability, T/C [21]: 21.6%
viability, T/C [22]: 11.2%
viability, T/C [23]: 6.82%
viability, T/C [24]: 4.69%
viability, T/C [25]: 52.4%
viability, T/C [26]: 35.1%
viability, T/C [27]: 25.4%
viability, T/C [28]: 13.4%
viability, T/C [29]: 6.44%
viability, T/C [30]: 4.66%
viability, T/C [31]: 48.2%
viability, T/C [32]: 38.8%
viability, T/C [33]: 24.1%
viability, T/C [34]: 13.9%
viability, T/C [35]: 7.41%
viability, T/C [36]: 4.56%
